Data from ChEMBL document CHEMBL1201862, “PubChem BioAssay data set” (2004).
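Following 48 hours of exposure in 96-well plates, responses at five concentrations were used to interpolate endpoints linearly. GI50: concentration for 50% inhibition of growth.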 Calls of active or inactive are those of the source. No stated cut-off is given here; in the data, active = GI50 up to about 1.1 µM and inactive = higher. Non-standard residues stand in square brackets, D forms with d. Residues, ends and D or L forms follow the SMILES beside them. ξ: configuration not given here. *: point of attachment. NMeF = CN[C@@H](Cc1ccccc1)C(=O)O; NMeN = CN[C@@H](CC(N)=O)C(=O)O; NMeV = CN[C@H](C(=O)O)C(C)C; ξNMeV = CNC(C(=O)O)C(C)C; Boc = CC(C)(C)OC(=O)*; ξNMeA = CNC(C)C(=O)O; ξV = CC(C)C(N)C(=O)O

Assays:
Assay in all cases: DTP human tumour cell line panel, 48 h
SN12C = system: SN12C
SR = system: SR
SF-268 = system: SF-268
SK-MEL-28 = system: SK-MEL-28
LOX IMVI = system: LOX IMVI
EKVX = system: EKVX
HCC 2998 = system: HCC 2998
NCI-H522 = system: NCI-H522
K562 = system: K562
RXF 393 = system: RXF 393
CCRF-CEM = system: CCRF-CEM
HT-29 = system: HT-29
HOP-62 = system: HOP-62
786-0 = system: 786-0
MDA-N = system: MDA-N
NCI-H226 = system: NCI-H226
NCI/ADR-RES = system: NCI/ADR-RES
COLO 205 = system: COLO 205
SF-539 = system: SF-539
SW-620 = system: SW-620

| Structure (SMILES) | GI50 (SN12C) | GI50 (SR) | GI50 (SF-268) | GI50 (SK-MEL-28) | GI50 (LOX IMVI) | GI50 (EKVX) | GI50 (HCC 2998) | GI50 (NCI-H522) | GI50 (K562) | GI50 (RXF 393) | GI50 (CCRF-CEM) | GI50 (HT-29) | GI50 (HOP-62) | GI50 (786-0) | GI50 (MDA-N) | GI50 (NCI-H226) | GI50 (NCI/ADR-RES) | GI50 (COLO 205) | GI50 (SF-539) | GI50 (SW-620) |
| --- | --- | --- | --- | --- | --- | --- | --- | --- | --- | --- | --- | --- | --- | --- | --- | --- | --- | --- | --- | --- |
| COC(=O)C(C)N(C)C(=O)[C@H](CC(N)=O)N(C)C(=O)[C@@H]1CCCN1C(=O)[C@H](C(C)C)N(C)C(=O)C(C(C)C)N(C)C(=O)[C@H](Cc1ccccc1)N(C)C(=O)C(NC(=O)OC(C)(C)C)C(C)C (stereo not given in full) (Boc-[ξV][NMeF][ξNMeV][NMeV]P[NMeN][ξNMeA]-OMe) | 26 µM (inactive) | 5.15 µM (inactive) | 13.9 µM (inactive) | 18.2 µM (inactive) | 9.44 µM (inactive) | > 50 µM (inactive) | 18.8 µM (inactive) | 17.5 µM (inactive) | 16.9 µM (inactive) | 12 µM (inactive) | 24 µM (inactive) | 18.3 µM (inactive) | 11.5 µM (inactive) | 17.6 µM (inactive) | 22.6 µM (inactive) | 12.1 µM (inactive) | > 50 µM (inactive) | 13.3 µM (inactive) | 28 µM (inactive) | 28.1 µM (inactive) |
| CN(C)c1ccc(C(c2ccc(N(C)C)cc2)c2ccc([N+](=O)[O-])cc2)cc1 | > 100 µM (inactive) | 90.6 µM (inactive) | > 100 µM (inactive) | > 100 µM (inactive) | > 100 µM (inactive) | > 100 µM (inactive) | > 100 µM (inactive) | > 100 µM (inactive) | > 100 µM (inactive) | > 100 µM (inactive) | > 100 µM (inactive) | > 100 µM (inactive) | > 100 µM (inactive) | > 100 µM (inactive) | > 100 µM (inactive) | > 100 µM (inactive) | > 100 µM (inactive) | > 100 µM (inactive) | > 100 µM (inactive) | > 100 µM (inactive) |
| OC(O)(C(F)(F)F)C(F)(F)F | > 100 µM (inactive) | > 100 µM (inactive) | > 100 µM (inactive) | > 100 µM (inactive) | > 100 µM (inactive) | > 100 µM (inactive) | > 100 µM (inactive) | > 100 µM (inactive) | > 100 µM (inactive) | > 100 µM (inactive) | > 100 µM (inactive) | > 100 µM (inactive) | > 100 µM (inactive) | > 100 µM (inactive) | > 100 µM (inactive) | > 100 µM (inactive) | > 100 µM (inactive) | > 100 µM (inactive) | > 100 µM (inactive) | > 100 µM (inactive) |
| CC(=O)Nc1ccc(/C=C2/NC(=S)N(/C=C3\C(=O)Oc4ccccc4C3=O)C2=O)cc1 | 94.6 µM (inactive) | 39.3 µM (inactive) | 29.4 µM (inactive) | 85.7 µM (inactive) | > 100 µM (inactive) | > 100 µM (inactive) | 43.2 µM (inactive) | 36.7 µM (inactive) | 49.4 µM (inactive) | > 100 µM (inactive) | 45.1 µM (inactive) | 44.9 µM (inactive) | 48 µM (inactive) | 69 µM (inactive) | 52 µM (inactive) | > 100 µM (inactive) | 33.7 µM (inactive) | 61.8 µM (inactive) | 96.2 µM (inactive) | 91 µM (inactive) |
| CN1C/C(=C\c2ccc(Cl)cc2)C(=O)/C(=C/c2ccc(Cl)cc2)C1 | 0.771 µM (active) | 0.323 µM (active) | 1.63 µM (inactive) | 3.78 µM (inactive) | 0.237 µM (active) | 15.6 µM (inactive) | 2.33 µM (inactive) | 1.97 µM (inactive) | 0.33 µM (active) | 0.834 µM (active) | 0.323 µM (active) | 0.294 µM (active) | 2.68 µM (inactive) | 0.354 µM (active) | 0.861 µM (active) | 4.45 µM (inactive) | 1.37 µM (inactive) | 0.979 µM (active) | 0.512 µM (active) | 0.386 µM (active) |
| CCOP(=O)(CCCC(O)CNc1cc(Cl)nc(N)n1)OCC (stereo not given) | > 100 µM (inactive) | > 100 µM (inactive) | > 100 µM (inactive) | > 100 µM (inactive) | > 100 µM (inactive) | > 100 µM (inactive) | > 100 µM (inactive) | > 100 µM (inactive) | > 100 µM (inactive) | > 100 µM (inactive) | > 100 µM (inactive) | > 100 µM (inactive) | > 100 µM (inactive) | > 100 µM (inactive) | > 100 µM (inactive) | > 100 µM (inactive) | > 100 µM (inactive) | > 100 µM (inactive) | > 100 µM (inactive) | > 100 µM (inactive) |
| Cn1[nH]nn/c1=N\N=C\c1ccccc1 | > 10 µM (inactive) | > 10 µM (inactive) | > 10 µM (inactive) | > 10 µM (inactive) | > 10 µM (inactive) | 2.9 µM (inactive) | > 10 µM (inactive) | > 10 µM (inactive) | > 10 µM (inactive) | > 10 µM (inactive) | > 10 µM (inactive) | > 10 µM (inactive) | > 10 µM (inactive) | > 10 µM (inactive) | > 10 µM (inactive) | > 10 µM (inactive) | > 10 µM (inactive) | > 10 µM (inactive) | > 10 µM (inactive) | > 10 µM (inactive) |
| C#CC1=CC(=O)C(OC)=CC1=O | 17.6 µM (inactive) | 6.7 µM (inactive) | 43.4 µM (inactive) | 37.2 µM (inactive) | 17.6 µM (inactive) | 23.3 µM (inactive) | 30.1 µM (inactive) | 1.77 µM (inactive) | 5.06 µM (inactive) | 15.2 µM (inactive) | 7.36 µM (inactive) | 23.3 µM (inactive) | 16.5 µM (inactive) | 3.01 µM (inactive) | 19.1 µM (inactive) | 19.3 µM (inactive) | 32.9 µM (inactive) | 27 µM (inactive) | 42.7 µM (inactive) | 17.5 µM (inactive) |
| NS(=O)(=O)c1ccc(Nc2c3ccccc3nc3c(C(=O)NC(CO)(CO)CO)cccc23)cc1 | 0.199 µM (active) | 0.334 µM (active) | 0.17 µM (active) | 0.242 µM (active) | 0.132 µM (active) | 0.314 µM (active) | 0.212 µM (active) | 0.15 µM (active) | 0.19 µM (active) | 0.185 µM (active) | 0.0557 µM (active) | 0.184 µM (active) | 0.178 µM (active) | 0.0201 µM (active) | 0.272 µM (active) | 0.136 µM (active) | 0.769 µM (active) | 0.0515 µM (active) | 0.204 µM (active) | 0.163 µM (active) |
| Cc1cc(/N=C/c2ccc(N(C)C)cc2)n(-c2ccccc2)n1 | 28.4 µM (inactive) | 19.1 µM (inactive) | 74.3 µM (inactive) | > 100 µM (inactive) | 48.3 µM (inactive) | 57.8 µM (inactive) | 20.1 µM (inactive) | 30.1 µM (inactive) | 44.6 µM (inactive) | 44.4 µM (inactive) | 22.2 µM (inactive) | 12.6 µM (inactive) | 17 µM (inactive) | 51.8 µM (inactive) | 5.86 µM (inactive) | 50.5 µM (inactive) | 24.7 µM (inactive) | 24.8 µM (inactive) | 45.9 µM (inactive) | 34.9 µM (inactive) |
